molecular target: T1, S1P2 (Homo sapiens, UniProt O95136); assay: GLISA RhoA activation - antagonist assay; type: cell-based; conditions: 1 μM compound, CHO-S1P2-FL cells
T1 construct: Flag; expressed in transfected cells; host or cells: Chinese hamster ovary (CHO) cells, doxycycline-inducible (CHO-S1P2-FL / CHO-S1PR2 FL)
Experimental: GLISA RhoA Activation—Antagonist Assay
GLISA assays were performed using RhoA (BK124) activation kit purchased from Cytoskeleton Inc., Denver, CO Doxycycline-inducible Flag-tag S1P2 expressing Chinese hamster ovary (CHO) cells (CHO-S1P2-FL) were seeded in a 6-well plate, 1.5×10^5 cells per well. Cells were stimulated with […] of Doxycycline to induce S1P2 expression in serum free IMDM media with 0.1% BSA/PBS. Following day, cells were stimulated with the compounds described herein (1 nM-10 μM) or 1 μM JTE-013 for 1 hour at 37° C. Following compound incubation, cells were washed with PBS×3 and induced with 100 nM […] for 5 min. […] Protein concentration was examined using GLISA—Precision Red Advanced Protein assay reagent as described in assay manual. Lysates were immobilized on GTP-bound capture plate and GLISA assay was performed based on manufacture recommendations as reported previously.

T1 sequence (O95136 whole entry, species assumed): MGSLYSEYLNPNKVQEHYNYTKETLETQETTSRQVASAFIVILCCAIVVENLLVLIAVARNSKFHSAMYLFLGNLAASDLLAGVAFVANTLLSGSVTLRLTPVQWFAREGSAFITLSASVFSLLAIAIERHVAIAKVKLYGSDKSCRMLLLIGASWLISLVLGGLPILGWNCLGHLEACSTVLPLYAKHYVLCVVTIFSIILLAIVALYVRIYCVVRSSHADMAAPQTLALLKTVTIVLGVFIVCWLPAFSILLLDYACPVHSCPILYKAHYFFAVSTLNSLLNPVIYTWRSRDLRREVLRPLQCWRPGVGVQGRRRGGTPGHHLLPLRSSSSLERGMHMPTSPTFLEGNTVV

inhibition at 1 µM [%] | SMILES
10 | Cc1nnc(Cn2c(C)cc(C(=O)C(C)n3cc(Br)ccc3=O)c2C)o1 (centres unmarked) [Example 57, 5-Bromo-1-(1-(2,5-dimethyl-1-((5-methyl-1,3,4-oxadiazol-2-yl)methyl)-1H-pyrrol-3-yl)-1-oxopropan-2-yl)pyridin-2(1H)-one]
< 10 | Cc1cc(C(=O)C(C)n2cc(Br)ccc2=O)c(C)n1CC1CC1 (centres unmarked) [Example 58, 5-Bromo-1-(1-(1-(cyclopropylmethyl)-2,5-dimethyl-1H-pyrrol-3-yl)-1-oxopropan-2-yl)pyridin-2(1H)-one]
< 10 | Cc1cc(C(=O)C(C)n2cc(Br)ccc2=O)c(C)n1CC1CCC1 (centres unmarked) [Example 59, 5-Bromo-1-(1-(1-(cyclobutylmethyl)-2,5-dimethyl-1H-pyrrol-3-yl)-1-oxopropan-2-yl)pyridin-2(1H)-one]
< 10 | COc1cccc(Cn2c(C)cc(C(=O)C(C)n3cc(Br)ccc3=O)c2C)c1 (centres unmarked) [Example 60, 5-Bromo-1-(1-(1-(3-methoxybenzyl)-2,5-dimethyl-1H-pyrrol-3-yl)-1-oxopropan-2-yl)pyridin-2(1H)-one]
18 | COc1ccc(Cn2c(C)cc(C(=O)C(C)n3cc(Br)ccc3=O)c2C)cc1 (centres unmarked) [Example 61, 5-Bromo-1-(1-(1-(4-methoxybenzyl)-2,5-dimethyl-1H-pyrrol-3-yl)-1-oxopropan-2-yl)pyridin-2(1H)-one]
11 | Cc1cc(C(=O)C(C)n2cc(Br)ccc2=O)c(C)n1Cc1cccc(F)c1 (centres unmarked) [Example 62, 5-Bromo-1-(1-(1-(3-fluorobenzyl)-2,5-dimethyl-1H-pyrrol-3-yl)-1-oxopropan-2-yl)pyridin-2(1H)-one]
17 | Cc1cccc(Cn2c(C)cc(C(=O)C(C)n3cc(Br)ccc3=O)c2C)c1 (centres unmarked) [Example 63, 5-Bromo-1-(1-(2,5-dimethyl-1-(3-methylbenzyl)-1H-pyrrol-3-yl)-1-oxopropan-2-yl)pyridin-2(1H)-one]
< 10 | Cc1ccccc1Cn1c(C)cc(C(=O)C(C)n2cc(Br)ccc2=O)c1C (centres unmarked) [Example 64, 5-Bromo-1-(1-(2,5-dimethyl-1-(2-methylbenzyl)-1H-pyrrol-3-yl)-1-oxopropan-2-yl)pyridin-2(1H)-one]
11 | Cc1ccc(Cn2c(C)cc(C(=O)C(C)n3cc(Br)ccc3=O)c2C)cc1 (centres unmarked) [Example 65, 5-Bromo-1-(1-(2,5-dimethyl-1-(4-methylbenzyl)-1H-pyrrol-3-yl)-1-oxopropan-2-yl)pyridin-2(1H)-one]
< 10 | O=C(Cn1cc(Br)ccc1=O)N1CCC(Cc2ccc(F)cc2)C1 (centres unmarked) [Example 66, 5-Bromo-1-(2-(3-(4-fluorobenzyl)pyrrolidin-1-yl)-2-oxoethyl)pyridin-2(1H)-one]
42 | O=C(Cn1cc(Br)ccc1=O)N1CCC(c2ccc(F)cc2)C1 (centres unmarked) [Example 67, 5-Bromo-1-(2-(3-(4-fluorophenyl)pyrrolidin-1-yl)-2-oxoethyl)pyridin-2(1H)-one]
18 | Cc1cc(C(=O)Cn2cc(Br)ccc2=O)nn1Cc1ccc(F)cc1 [Example 68, 5-Bromo-1-(2-(1-(4-fluorobenzyl)-5-methyl-1H-pyrazol-3-yl)-2-oxoethyl)pyridin-2(1H)-one]

same assay, conditions: CHO-S1P2-FL cells, 1 hour compound incubation, then for 5 min

IC50 [µM] | SMILES
> 10 | Cc1cc(=O)n(CC(=O)c2cc(C)n(Cc3ccccc3)c2C)cc1C#N [Example 49, 1-(2-(1-Benzyl-2,5-dimethyl-1H-pyrrol-3-yl)-2-oxoethyl)-4-methyl-6-oxo-1,6-dihydropyridine-3-carbonitrile]
> 10 | COc1ccc(=O)n(CC(=O)c2cc(C)n(Cc3ccccc3)c2C)c1 [Example 50, 1-(2-(1-Benzyl-2,5-dimethyl-1H-pyrrol-3-yl)-2-oxoethyl)-5-methoxypyridin-2(1H)-one]
> 10 | Cc1cc(C(=O)C(Cc2ccccc2)n2cc(C#N)ccc2=O)c(C)n1Cc1ccccc1 (centres unmarked) [Example 51, 1-(1-(1-Benzyl-2,5-dimethyl-1H-pyrrol-3-yl)-1-oxo-3-phenylpropan-2-yl)-6-oxo-1,6-dihydropyridine-3-carbonitrile]
> 10 | Cc1cc(C(=O)C(C)n2cc(C#N)ccc2=O)c(C)n1Cc1ccccc1 (centres unmarked) [Example 52, 1-(1-(1-Benzyl-2,5-dimethyl-1H-pyrrol-3-yl)-1-oxopropan-2-yl)-6-oxo-1,6-dihydropyridine-3-carbonitrile]
> 10 | Cc1cc(C(=O)Cn2cc(C(C)(C)C)ccc2=O)c(C)n1Cc1ccccc1 [Example 53, 1-(2-(1-Benzyl-2,5-dimethyl-1H-pyrrol-3-yl)-2-oxoethyl)-5-(tert-butyl)pyridin-2(1H)-one]
> 10 | CC(=O)Nc1ccc(=O)n(CC(=O)c2cc(C)n(Cc3ccccc3)c2C)c1 [Example 54, N-(1-(2-(1-Benzyl-2,5-dimethyl-1H-pyrrol-3-0)-2-oxoethyl)-6-oxo-1,6-dihydropyridin-3-yl)acetamide]
0.11 | Cc1c(C(=O)Cn2nc(Br)ccc2=O)cnn1Cc1ccccc1 [Example 55, 2-(2-(1-Benzyl-5-methyl-1H-pyrazol-4-yl)-2-oxoethyl)-6-bromopyridazin-3(2H)-one]
0.2 | Cc1c(C(=O)Cn2cc(Br)cnc2=O)cnn1Cc1ccccc1 [Example 56, 1-(2-(1-Benzyl-5-methyl-1H-pyrazol-4-yl)-2-oxoethyl)-5-bromopyrimidin-2(1H)-one]
0.05 | Cc1c(C(=O)Cn2cc(C#N)cc(C#N)c2=O)cnn1Cc1ccccc1 [Example 69, 1-(2-(1-Benzyl-5-methyl-1H-pyrazol-4-yl)-2-oxoethyl)-2-oxo-1,2-dihydropyridine-3,5-dicarbonitrile]
0.181 | Cc1c(C(=O)Cn2cc(Br)ncc2=O)cnn1Cc1ccccc1 [Example 70, 1-(2-(1-Benzyl-5-methyl-1H-pyrazol-4-yl)-2-oxoethyl)-5-bromopyrazin-2(1H)-one]
0.022 | Cc1c(C(=O)Cn2c(F)c(Br)ccc2=O)cnn1Cc1ccccc1 [Example 71, 1-(2-(1-Benzyl-5-methyl-1H-pyrazol-4-yl)-2-oxoethyl)-5-bromo-6-fluoropyridin-2(1H)-one]
0.091 | Cc1c(C(=O)Cn2cc(Br)c(F)cc2=O)cnn1Cc1ccccc1 [Example 72, 1-(2-(1-Benzyl-5-methyl-1H-pyrazol-4-yl)-2-oxoethyl)-5-bromo-4-fluoropyridin-2(1H)-one]
0.059 | C#Cc1ccc(=O)n(C(C)C(=O)c2cnn(Cc3ccccc3)c2C)n1 (centres unmarked) [Example 73, 2-(1-(1-Benzyl-5-methyl-1H-pyrazol-4-yl)-1-oxopropan-2-yl)-6-ethynylpyridazin-3(2H)-one]
0.046 | C#Cc1ccc(=O)n(C(C)C(=O)c2cnn(Cc3ccc(F)cc3)c2C)n1 (centres unmarked) [Example 74, 6-Ethynyl-2-(1-(1-(4-fluorobenzyl)-5-methyl-1H-pyrazol-4-yl)-1-oxopropan-2-yl)pyridazin-3(2H)-one]
0.058 | C#Cc1ccc(=O)n(C(C)C(=O)c2cnn(Cc3ccc(F)cc3F)c2C)n1 (centres unmarked) [Example 75, 2-(1-(1-(2,4-Difluorobenzyl)-5-methyl-1H-pyrazol-4-yl)-1-oxopropan-2-yl)-6-ethynylpyridazin-3(2H)-one]
0.13 | C=Cc1ccc(=O)n(C(C)C(=O)c2cnn(Cc3ccccc3)c2C)n1 (centres unmarked) [Example 76, 2-(1-(1-Benzyl-5-methyl-1H-pyrazol-4-yl)-1-oxopropan-2-yl)-6-vinylpyridazin-3(2H)-one]
0.1 | C#Cc1ccc(=O)n(C(C)C(=O)c2cnn(Cc3ccccn3)c2C)c1 (centres unmarked) [Example 77]
0.05 | C=Cc1ccc(=O)n(C(C)C(=O)c2cnn(Cc3ccccn3)c2C)c1 (centres unmarked) [Example 79, 1-(1-(5-Methyl-1-(pyridin-2-ylmethyl)-1H-pyrazol-4-yl)-1-oxopropan-2-yl)-5-vinylpyridin-2(1H)-one]
0.097 | C=Cc1ccc(=O)n(CC(=O)c2cnn(Cc3ccccn3)c2CC)c1 [Example 80, 1-(2-(5-Ethyl-1-(pyridin-2-ylmethyl)-1H-pyrazol-4-yl)-2-oxoethyl)-5-vinylpyridin-2(1H)-one]
0.181 | C=C(C)c1ccc(=O)n(CC(=O)c2cnn(Cc3ccccc3)c2C)c1 [Example 81, 1-(2-(1-Benzyl-5-methyl-1H-pyrazol-4-yl)-2-oxoethyl)-5-(prop-1-en-2-yl)pyridin-2(1H)-one]
0.074 | C=Cc1ccc(=O)n(CC(=O)c2cnn(Cc3ccccc3)c2C(F)(F)F)c1 [Example 82, 1-(2-(1-Benzyl-5-(trifluoromethyl)-1H-pyrazol-4-yl)-2-oxoethyl)-5-vinylpyridin-2(1H)-one]
0.082 | C=C(F)c1ccc(=O)n(CC(=O)c2cnn(Cc3ccccc3)c2C)c1 [Example 83]
0.043 | C=C(c1ccc(=O)n(CC(=O)c2cnn(Cc3ccccc3)c2C)c1)C(F)(F)F [Example 84, 1-(2-(1-Benzyl-5-methyl-1H-pyrazol-4-yl)-2-oxoethyl)-5-(3,3,3-trifluoroprop-1-en-2-yl)pyridin-2(1H)-one]
0.108 | C=Cc1ccc(=O)n(CC(=O)c2cnn(Cc3ccccc3)c2CC)c1 [Example 85, 1-(2-(1-Benzyl-5-ethyl-1H-pyrazol-4-yl)-2-oxoethyl)-5-vinylpyridin-2(1H)-one]
0.092 | C=Cc1ccc(=O)n(CC(=O)c2c(C)nn(Cc3ccccc3)c2C)c1 [Example 86, 1-(2-(1-Benzyl-3,5-dimethyl-1H-pyrazol-4-yl)-2-oxoethyl)-5-vinylpyridin-2(1H)-one]
0.107 | C=Cc1ccc(=O)n(CC(=O)c2cnn(Cc3ccccc3)c2C(F)F)c1 [Example 87, 1-(2-(1-Benzyl-5-(difluoromethyl)-1H-pyrazol-4-yl)-2-oxoethyl)-5-vinylpyridin-2(1H)-one]

Reference: patent US11964960B2 (Cornell University, priority 2018, dated 2024)
